Reference: patent US20100317607A1, “USE OF COMPOUNDS FOR PREPARING ANTI-TUBERCULOSIS AGENTS” (INFECTIOUS DISEASE RESEARCH INSTITUTE, priority 2007, published 2010)
Converted amounts (≈) assume the structure as drawn. Structures can show the parent of a compound that is named as a salt.

system: H37Rv strain of M. tuberculosis; experiment: Alamar Blue Susceptibility Test (MABA); type: cell-based; settings: Mycobacterium tuberculosis; H37Rv strain of M. tuberculosis; Alamar Blue; read-out: MABA (TB growth inhibition, colourimetric assay)

c1ccc2c(c1)CCN(c1nc(N3CCCCC3)c3ccccc3n1)C2 [Compound 113, 2-(3,4-Dihydroisoquinolin-2(1H)-yl)-4-(piperidin-1-yl)quinazoline hydrochloride] and c1ccc(C2(Nc3nc(N4CCCCC4)nc4ccccc34)CC2)cc1 [Compound 122, N-(1-Phenylcyclopropyl)-2-(piperidin-1-yl)quinazolin-4-amine] fall in the same range of MIC: 10 to 50 µM for the first, 10 to 50 µM (≈ 3.44 to 17.2 µg/mL) for the second.

Fc1ccc(CNc2nc(Nc3ccc(F)cc3)nc3ccccc23)cc1 [Compound 118, N^4-(4-Fluorobenzyl)-N^2-(4-fluorophenyl)quinazoline-2,4-diamine hydrochloride] and Fc1ccc(CNc2nc(NCc3ccc(F)cc3)c3ccccc3n2)cc1 [Compound 119, N^2,N^4-bis(4-Fluorobenzyl)quinazoline-2,4-diamine hydrochloride] fall in the same range of MIC: 10 to 50 µM for the first, 10 to 50 µM for the second.

Compared with CC(C)(Nc1nc(N2CCCC2)nc2ccccc12)c1ccc(F)cc1 [Compound 121, N-(2-(4-Fluorophenyl)propan-2-yl)-2-(pyrrolidin-1-yl)quinazolin-4-amine], Fc1ccc(CNc2nc(N3CCCC3)nc3ccccc23)cc1 [Compound 172, N-(4-Fluorobenzyl)-2-(pyrrolidin-1-yl)quinazolin-4-amine] is lower in MIC: 10 to 50 µM (≈ 3.5 to 17.5 µg/mL) for the first, under 10 µM for the second.

First: c1ccc(C2(Nc3nc(N4CCCC4)nc4ccccc34)CC2)cc1 [Compound 123, N-(1-Phenylcyclopropyl)-2-(pyrrolidin-1-yl)quinazolin-4-amine]
Second: c1ccc(C2(Nc3nc(N4CCCC4)nc4ccccc34)CCCCC2)cc1 [Compound 125, N-(1-Phenylcyclohexyl)-2-(pyrrolidin-1-yl)quinazolin-4-amine]
The MIC of the first is lower: 10 to 50 µM (≈ 3.3 to 16.5 µg/mL) for the first, 50 to 128 µM (≈ 18.6 to 47.7 µg/mL) for the second.

Fc1ccc(CNc2nc(NCc3ccccc3)c3ccccc3n2)cc1 [Compound 126, N^4-Benzyl-N^2-(4-fluorobenzyl)quinazoline-2,4-diamine hydrochloride] and COc1ccc(CNc2nc(NCc3ccccc3)c3ccccc3n2)cc1 [Compound 129, N^4-Benzyl-N^2-(4-methoxybenzyl)quinazoline-2,4-diamine hydrochloride] fall in the same range of MIC: 10 to 50 µM for the first, 10 to 50 µM for the second.

Fc1ccc(CNc2nc(N3CCC(F)(F)CC3)nc3ccccc23)cc1 [Compound 137, 2-(4,4-Difluoropiperidin-1-yl)-N-(4-fluorobenzyl)quinazolin-4-amine] and Fc1ccc(CNc2nc(N3CCC(F)(F)CC3)nc3cc(F)ccc23)cc1 [Compound 156, 2-(4,4-Difluoropiperidin-1-yl)-7-fluoro-N-(4-fluorobenzyl)quinazolin-4-amine] fall in the same range of MIC: 10 to 50 µM (≈ 3.72 to 18.6 µg/mL) for the first, 10 to 50 µM (≈ 3.9 to 19.5 µg/mL) for the second.

First: CCC(CC)(Nc1nc(N2CCCCC2)nc2ccccc12)c1ccccc1 [Compound 138, N-(3-Phenylpentan-3-yl)-2-(piperidin-1-yl)quinazolin-4-amine]
Second: OC[C@H](Nc1nc(N2CCCCC2)nc2ccccc12)c1ccccc1 [Compound 145, (R)-2-Phenyl-2-(2-(piperidin-1-yl)quinazolin-4-ylamino)ethanol hydrochloride]
The MIC of the first is lower: under 10 µM for the first, 50 to 128 µM for the second.

O=C1CCN(c2nc(NCc3ccccc3)c3ccccc3n2)CC1 [Compound 139, 1-(4-(Benzylamino)quinazolin-2-yl)piperidin-4-one] and c1ccc(CNc2nc(N3CCSCC3)nc3ccccc23)cc1 [Compound 140, N-Benzyl-2-thiomorpholinoquinazolin-4-amine hydrochloride] cannot be ordered by MIC: under 10 µM for the first, under 10 µM for the second.

Clc1ccc(C2(Nc3nc(N4CCCCC4)nc4ccccc34)CC2)cc1 [Compound 141, N-(1-(4-Chlorophenyl)cyclopropyl)-2-(piperidin-1-yl)quinazolin-4-amine hydrochloride] and Clc1ccc(C2(Nc3nc(N4CCCC4)nc4ccccc34)CC2)cc1 [Compound 142, N-(1-(4-Chlorophenyl)cyclopropyl)-2-(pyrrolidin-1-yl)quinazolin-4-amine hydrochloride] fall in the same range of MIC: 10 to 50 µM for the first, 10 to 50 µM for the second.

OC[C@H](Cc1ccccc1)Nc1nc(N2CCCCC2)nc2ccccc12 [Compound 143, (S)-3-Phenyl-2-(2-(piperidin-1-yl)quinazolin-4-ylamino)propan-1-ol hydrochloride] and COC[C@H](Cc1ccccc1)Nc1nc(N2CCCCC2)nc2ccccc12 [Compound 144, (S)—N-(1-Methoxy-3-phenylpropan-2-yl)-2-(piperidin-1-yl)quinazolin-4-amine] fall in the same range of MIC: 10 to 50 µM for the first, 10 to 50 µM (≈ 3.77 to 18.8 µg/mL) for the second.

FC1(F)CCN(c2nc(NCc3ccc(Cl)cc3)nc3ccccc23)CC1 [Compound 146, N-(4-Chlorobenzyl)-4-(4,4-difluoropiperidin-1-yl)quinazolin-2-amine hydrochloride] and Fc1ccc(CNc2nc(N3CCC(F)(F)CC3)c3ccccc3n2)cc1 [Compound 149, 4-(4,4-Difluoropiperidin-1-yl)-N-(4-fluorobenzyl)quinazolin-2-amine hydrochloride] fall in the same range of MIC: 10 to 50 µM for the first, 10 to 50 µM for the second.

First: FC1(F)CCN(c2nc(NCc3ccc(C(F)(F)F)cc3)nc3ccccc23)CC1 [Compound 147, 4-(4,4-Difluoropiperidin-1-yl)-N-(4-(trifluoromethyl)benzyl)quinazolin-2-amine]
Second: FC1(F)CCN(c2nc(NCc3ccc(OC(F)(F)F)cc3)c3ccccc3n2)CC1 [Compound 163, 2-(4,4-Difluoropiperidin-1-yl)-N-(4-(trifluoromethoxy)benzyl)quinazolin-4-amine]
The MIC of the first is lower: under 10 µM for the first, 10 to 50 µM (≈ 4.38 to 21.9 µg/mL) for the second.

Fc1ccc(CNc2nc(N3CCC(F)(F)CC3)c3ccccc3n2)c(F)c1 [Compound 148, N-(2,4-Difluorobenzyl)-4-(4,4-difluoropiperidin-1-yl)quinazolin-2-amine] and FC1(F)CCN(c2nc(NCc3ccc(C(F)(F)F)o3)c3ccccc3n2)CC1 [Compound 161, 2-(4,4-Difluoropiperidin-1-yl)-N-((5-(trifluoromethyl)furan-2-yl)methyl)quinazolin-4-amine hydrochloride] fall in the same range of MIC: 10 to 50 µM (≈ 3.9 to 19.5 µg/mL) for the first, 10 to 50 µM for the second.

COc1cc2nc(N3CCCCC3)nc(NCc3ccc(F)cc3)c2cc1OC [Compound 150, N-(4-Fluorobenzyl)-6,7-dimethoxy-2-(piperidin-1-yl)quinazolin-4-amine hydrochloride] and COc1cc2nc(N3CCC(F)(F)CC3)nc(NCc3ccc(F)cc3)c2cc1OC [Compound 151, 2-(4,4-Difluoropiperidin-1-yl)-N-(4-fluorobenzyl)-6,7-dimethoxyquinazolin-4-amine hydrochloride] fall in the same range of MIC: 10 to 50 µM for the first, 10 to 50 µM for the second.

Compared with Fc1ccc(C2(Nc3nc(N4CCCCC4)nc4ccccc34)CC2)cc1 [Compound 152, N-(1-(4-Fluorophenyl)cyclopropyl)-2-(piperidin-1-yl)quinazolin-4-amine], Fc1ccc(C2(Nc3nc(N4CCC(F)(F)CC4)nc4ccccc34)CC2)cc1 [Compound 153, 2-(4,4-Difluoropiperidin-1-yl)-N-(1-(4-fluorophenyl)cyclopropyl)quinazolin-4-amine] is higher in MIC: 10 to 50 µM (≈ 3.62 to 18.1 µg/mL) for the first, 50 to 128 µM (≈ 19.9 to 51 µg/mL) for the second.

First: Fc1ccc(CNc2nc(NC3(c4ccc(F)cc4)CC3)c3ccccc3n2)cc1 [Compound 154, N^2-(4-Fluorobenzyl)-N^4-(1-(4-fluorophenyl)cyclopropyl)quinazoline-2,4-diamine]
Second: Oc1ccc(CNc2nc(NCc3ccc(F)cc3)nc3ccccc23)cc1 [Compound 165, 4-((2-(4-Fluorobenzylamino)quinazolin-4-ylamino)methyl)phenol]
The MIC of the first is lower: under 10 µM for the first, 10 to 50 µM (≈ 3.74 to 18.7 µg/mL) for the second.

First: Fc1ccc(CNc2nc(N3CCCCC3)nc3cc(F)ccc23)cc1 [Compound 155, 7-Fluoro-N-(4-fluorobenzyl)-2-(piperidin-1-yl)quinazolin-4-amine]
Second: Oc1ccc(CNc2nc(N3CCCCC3)nc3ccccc23)cc1 [Compound 164, 4-((2-(Piperidin-1-yl)quinazolin-4-ylamino)methyl)phenol]
The MIC of the first is lower: under 10 µM for the first, 10 to 50 µM (≈ 3.34 to 16.7 µg/mL) for the second.

First: Fc1ccc(CNc2nc(NCc3ccc(F)cc3)c3ccc(F)cc3n2)cc1 [Compound 157, 7-Fluoro-N^2, N^4-bis(4-fluorobenzyl)quinazoline-2,4-diamine]
Second: Fc1ccc(CNc2nc(NCc3ccc(F)cc3)c3sccc3n2)cc1 [Compound 166, N^2,N^4-bis(4-Fluorobenzyl)thieno[3,2-d]pyrimidine-2,4-diamine]
The MIC of the first is lower: under 10 µM for the first, 10 to 50 µM (≈ 3.82 to 19.1 µg/mL) for the second.

Cc1ccc(CNc2nc(NCc3ccc(F)cc3)nc3ccccc23)o1 [Compound 158, N^2-(4-Fluorobenzyl)-N^4-((5-methylfuran-2-yl)methyl)quinazoline-2,4-diamine hydrochloride] and Cc1ccc(CNc2nc(NCc3ccc(F)cc3)c3ccccc3n2)o1 [Compound 170, N^4-(4-Fluorobenzyl)-N^2-((5-methylfuran-2-yl)methyl)quinazoline-2,4-diamine] fall in the same range of MIC: 10 to 50 µM for the first, 10 to 50 µM (≈ 3.62 to 18.1 µg/mL) for the second.

First: Fc1ccc(CNc2nc(NCc3ccc(C(F)(F)F)o3)c3ccccc3n2)cc1 [Compound 159, N^2-(4-Fluorobenzyl)-N4-((5-(trifluoromethyl)furan-2-yl)methyl)quinazoline-2,4-diamine hydrochloride]
Second: Fc1ccc(CNc2nc(NCc3cc4ccccc4s3)nc3ccccc23)cc1 [Compound 171, N^2-(Benzo[b]thiophen-2-ylmethyl)-N^4-(4-fluorobenzyl)quinazoline-2,4-diamine]
The MIC of the first is lower: under 10 µM for the first, 10 to 50 µM (≈ 4.15 to 20.7 µg/mL) for the second.

FC(F)(F)c1ccc(CNc2nc(N3CCCCC3)nc3ccccc23)o1 [Compound 160, 2-(Piperidin-1-yl)-N-((5-(trifluoromethyl)furan-2-yl)methyl)quinazolin-4-amine hydrochloride] and Cc1ccc(CNc2nc(N3CCCCC3)nc3ccccc23)o1 [Compound 167, N-((5-Methylfuran-2-yl)methyl)-2-(piperidin-1-yl)quinazolin-4-amine] cannot be ordered by MIC: under 10 µM for the first, under 10 µM for the second.

Compared with FC(F)(F)Oc1ccc(CNc2nc(N3CCCCC3)nc3ccccc23)cc1 [Compound 162, 2-(Piperidin-1-yl)-N-(4-(trifluoromethoxy)benzyl)quinazolin-4-amine], Fc1ccc(CNc2nc(N3CCOCC3)nc3ccccc23)cc1 [Compound 169, N-(4-Fluorobenzyl)-2-morpholinoquinazolin-4-amine] is higher in MIC: under 10 µM for the first, 10 to 50 µM (≈ 3.38 to 16.9 µg/mL) for the second.

With COc1cc2nc(NCc3ccc(F)cc3)nc(NCc3ccc(F)cc3)c2cc1OC [Compound 168, N^2,N^4-bis(4-Fluorobenzyl)-6,7-dimethoxyquinazoline-2,4-diamine] the MIC was 10 to 50 µM (≈ 4.36 to 21.8 µg/mL).
